Experimental data published in patent US20220073536A1 (Rigel Pharmaceuticals, Inc., priority 2003, published 2022).

Assays:
[1] = tested on: cultured human mast cells (CHMC); test: CHMC low cell density IgE activation: tryptase assay; assay type: cell-based; settings: low cell density CHMC, IgE activation, tryptase readout
In short: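 CHMC at 1000–1500 cells/well were preincubated 1 hr at 37° C., stimulated with anti-IgE for 30 minutes at 37° C., then pelleted. Supernatant tryptase was measured with a fluorogenic substrate after 30 min at room temperature, against un-stimulated control wells.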

[2] = tested on: cultured human mast cells (CHMC); test: CHMC low cell density ionomycin activation: tryptase assay; assay type: cell-based; settings: low cell density CHMC, tryptase readout, 3 pt, read-out: LD Tryptase, CHMC, Iono, 3 pt
[3] = 3 pt, read-out: LD Tryptase, CHMC, IgE, 3 pt
[4] = 8 pt, read-out: LD Tryptase, CHMC, IgE, 8 pt
[5] = Homo sapiens, Mast cell, 3 pt, read-out: LD Tryptase, CHMC, IgE, 3 pt
[6] = Homo sapiens, Mast cell, 8 pt, read-out: LD Tryptase, CHMC, IgE, 8 pt

For CN1C(=O)C(C)(C)Oc2ccc(Nc3nc(Nc4ccc(-c5ncco5)cc4)ncc3F)nc21 [Compound 1013, 5-Fluoro-N2-[4-(oxazol-2-yl)phenyl]-N4-[3-oxo-2,2,4-trimethyl-5-pyrid[1,4]oxazin-6-yl]-2,4-pyrimidinediamine], the IC50 [1, 3] was < 10 µM and the IC50 [2] was > 10 µM.
For CCOC(=O)COc1c(C)cc(Nc2ncc(F)c(Nc3ccc4c(c3)NC(=O)C(C)(C)O4)n2)cc1Cl [Compound 1014, N2-[3-Chloro-4-ethoxycarbonylmethyleneoxy-5-methylphenyl]-N4-(2,2-dimethyl-3-oxo-4H-benz[1,4]oxazin-6-yl)-5-fluoro-2,4-pyrimidinediamine], the IC50 [1, 3] was < 10 µM, the IC50 [1, 4] was < 10 µM and the IC50 [2] was < 10 µM.
For CNC(=O)COc1cccc(Nc2ncc(F)c(Nc3ccc4c(n3)N(C)C(=O)C(C)(C)O4)n2)c1 [Compound 1015, 5-Fluoro-N2-[3-(N-methylamino)carbonylmethyleneoxyphenyl]-N4-[3-oxo-2,2,4-trimethyl-5-pyrid[1,4]oxazin-6-yl]-2,4-pyrimidinediamine], the IC50 [1, 3] was < 10 µM, the IC50 [1, 4] was < 10 µM and the IC50 [2] was > 10 µM.
With CC1(C)Oc2ccc(Nc3nc(Nc4cccc(-c5cnco5)c4)ncc3F)cc2NC1=O [Compound 1016, N4-(2,2-Dimethyl-3-oxo-4H-benz[1,4]oxazin-6-yl)-5-fluoro-N2-[3-(oxazol-5-yl)phenyl]-2,4-pyrimidinediamine] the IC50 [1, 5] was < 10 µM, the IC50 [1, 6] was < 10 µM and the IC50 ([2]; Homo sapiens, Mast cell) was > 10 µM.
With CN1C(=O)C(C)(C)Oc2ccc(Nc3nc(Nc4cccc(-c5cnco5)c4)ncc3F)nc21 [Compound 1017, 5-Fluoro-N2-[3-(oxazol-5-yl)phenyl]-N4-[3-oxo-2,2,4-trimethyl-5-pyrid[1,4]oxazin-6-yl]-2,4-pyrimidinediamine] the IC50 [1, 3] was < 10 µM, the IC50 [1, 4] was < 10 µM and the IC50 [2] was > 10 µM.
In the case of Cc1cc(Nc2ncc(F)c(Nc3ccc4c(c3)NC(=O)C(C)(C)O4)n2)cc(Cl)c1OC1CCCC1 [Compound 1018, N2-[3-Chloro-4-cyclopentyloxy-5-methylphenyl]-N4-(2,2-dimethyl-3-oxo-4H-benz[1,4]oxazin-6-yl)-5-fluoro-2,4-pyrimidinediamine], the IC50 [1, 5] is reported as < 10 µM, the IC50 [1, 6] is reported as < 10 µM and the IC50 ([2]; Homo sapiens, Mast cell) is reported as > 10 µM.
For CN(c1ccc2c(c1)NC(=O)C(C)(C)O2)c1nc(Nc2cccc(-c3ncco3)c2)ncc1F [Compound 1019, N4-(2,2-Dimethyl-3-oxo-4H-benz[1,4]oxazin-6-yl)-5-fluoro-N4-methyl-N2-[3-(oxazol-2-yl)phenyl]-2,4-pyrimidinediamine], the IC50 [1, 5] was < 10 µM, the IC50 [1, 6] was < 10 µM and the IC50 ([2]; Homo sapiens, Mast cell) was > 10 µM.
For CC1(C)Oc2ccc(Nc3nc(Nc4ccc(-c5cnco5)cc4)ncc3F)cc2NC1=O [Compound 1020, N4-(2,2-Dimethyl-3-oxo-4H-benz[1,4]oxazin-6-yl)-5-fluoro-N2-[4-(oxazol-5-yl)phenyl]-2,4-pyrimidinediamine], the IC50 [1, 5] was < 10 µM, the IC50 [1, 6] was < 10 µM and the IC50 ([2]; Homo sapiens, Mast cell) was > 10 µM.
With CN(c1ccc2c(c1)NC(=O)C(C)(C)O2)c1nc(Nc2ccc(-c3ncco3)cc2)ncc1F [Compound 1021] the IC50 [1, 5] was < 10 µM, the IC50 [1, 6] was < 10 µM and the IC50 ([2]; Homo sapiens, Mast cell) was < 10 µM.
In the case of CNC(=O)COc1cccc(Nc2ncc(F)c(N(C)c3ccc4c(c3)NC(=O)C(C)(C)O4)n2)c1 [Compound 1022, N4-(2,2-Dimethyl-3-oxo-4H-benz[1,4]oxazin-6-yl)-5-fluoro-N4-methyl-N2-[3-(N-methylamino)carbonylmethyleneoxyphenyl]-2,4-pyrimidinediamine], the IC50 [1, 3] is reported as < 10 µM, the IC50 [1, 4] is reported as < 10 µM and the IC50 [2] is reported as > 10 µM.
With CN(c1ccc2c(c1)NC(=O)C(C)(C)O2)c1nc(Nc2cccc(-c3cnco3)c2)ncc1F [Compound 1023, N4-(2,2-Dimethyl-3-oxo-4H-benz[1,4]oxazin-6-yl)-5-fluoro-N4-methyl-N2-[3-(oxazol-5-yl)phenyl]-2,4-pyrimidinediamine] the IC50 [1, 5] was < 10 µM, the IC50 [1, 6] was < 10 µM and the IC50 ([2]; Homo sapiens, Mast cell) was > 10 µM.
For CN1C(=O)C(C)(C)Oc2ccc(N(C)c3nc(Nc4ccc(-c5ncco5)cc4)ncc3F)cc21 [Compound 1024], the IC50 [1, 5] was < 10 µM and the IC50 ([2]; Homo sapiens, Mast cell) was < 10 µM.
In the case of CN1C(=O)C(C)(C)Oc2ccc(N(C)c3nc(Nc4cccc(-c5ncco5)c4)ncc3F)cc21 [Compound 1025, 5-Fluoro-N4-methyl-N2-[3-(oxazol-2-yl)phenyl]-N4-(3-oxo-2,2,4-trimethylbenz[1,4]oxazin-6-yl)-2,4-pyrimidinediamine], the IC50 [1, 5] is reported as < 10 µM and the IC50 ([2]; Homo sapiens, Mast cell) is reported as < 10 µM.
CN1C(=O)C(C)(C)Oc2ccc(N(C)c3nc(Nc4ccc(-c5cnco5)cc4)ncc3F)cc21 [Compound 1026] was tested, and the IC50 [1, 5] was < 10 µM and the IC50 ([2]; Homo sapiens, Mast cell) was > 10 µM.
With Cc1cc(Nc2ncc(F)c(Nc3ccc4c(n3)NC(=O)C(C)(C)O4)n2)cc(Cl)c1OC1CCCC1 [Compound 1027, N2-(3-Chloro-4-cyclopentyloxy-5-methylphenyl)-N4-(2,2-dimethyl-3-oxo-4H-5-pyrid[1,4]oxazin-6-yl)-5-fluoro-2,4-pyrimidinediamine] the IC50 [1, 3] was < 10 µM and the IC50 [2] was > 10 µM.
With CC1(C)Oc2ccc(Nc3nc(Nc4cccc(-c5ncco5)c4)ncc3F)nc2NC1=O [Compound 1028, N4-(2,2-Dimethyl-3-oxo-4H-5-pyrid[1,4]oxazin-6-yl)-5-fluoro-N2-[3-(oxazol-2-yl)phenyl]-2,4-pyrimidinediamine] the IC50 [1, 3] was < 10 µM, the IC50 [1, 4] was < 10 µM and the IC50 [2] was > 10 µM.
CC1(C)Oc2ccc(Nc3nc(Nc4cccc(-c5cocn5)c4)ncc3F)nc2NC1=O [Compound 1029, N4-(2,2-Dimethyl-3-oxo-4H-5-pyrid[1,4]oxazin-6-yl)-5-fluoro-N2-[3-(oxazol-4-yl)phenyl]-2,4-pyrimidinediamine] was tested, and the IC50 [1, 3] was < 10 µM, the IC50 [1, 4] was < 10 µM and the IC50 [2] was > 10 µM.
CN1C(=O)C(C)(C)Oc2ccc(N(C)c3nc(Nc4cccc(-c5cocn5)c4)ncc3F)cc21 [Compound 1030] was tested, and the IC50 [1, 5] was < 10 µM and the IC50 ([2]; Homo sapiens, Mast cell) was < 10 µM.
COc1c(C)cc(Nc2ncc(F)c(N(C)c3ccc4c(c3)N(C)C(=O)C(C)(C)O4)n2)cc1C [Compound 1031] was tested, and the IC50 [1, 5] was < 10 µM and the IC50 ([2]; Homo sapiens, Mast cell) was > 10 µM.
With Cc1cc(Nc2ncc(F)c(N(C)c3ccc4c(c3)N(C)C(=O)C(C)(C)O4)n2)cc(Cl)c1OC1CCCC1 [Compound 1032, N2-(3-Chloro-4-cyclopentyloxy-5-methylphenyl)-5-fluoro-N4-methyl-N4-(3-oxo-2,2,4-trimethyl-benz[1,4]oxazin-6-yl)-2,4-pyrimidinediamine] the IC50 [1, 5] was > 10 µM and the IC50 ([2]; Homo sapiens, Mast cell) was > 10 µM.
For COc1c(C)cc(Nc2ncc(F)c(Nc3ccc4c(c3)N(C)C(=O)C(C)(C)O4)n2)cc1C [Compound 1033], the IC50 [1, 5] was < 10 µM, the IC50 [1, 6] was < 10 µM and the IC50 ([2]; Homo sapiens, Mast cell) was < 10 µM.
For Cc1cc(Nc2ncc(F)c(Nc3ccc4c(c3)N(C)C(=O)C(C)(C)O4)n2)cc(Cl)c1OC1CCCC1 [Compound 1034, N2-(3-Chloro-4-cyclopentyloxy-5-methylphenyl)-5-fluoro-N4-(3-oxo-2,2,4-trimethyl-benz[1,4]oxazin-6-yl)-2,4-pyrimidinediamine], the IC50 [1, 5] was < 10 µM and the IC50 ([2]; Homo sapiens, Mast cell) was > 10 µM.
CC1(C)Oc2ccc(Nc3nc(Nc4cccc(-c5cocn5)c4)ncc3F)cc2NC1=O [Compound 1036, N4-(2,2-Dimethyl-3-oxo-4H-benz[1,4]oxazin-6-yl)-5-fluoro-N2-[3-(oxazol-4-yl)phenyl]-2,4-pyrimidinediamine] was tested, and the IC50 [1, 5] was < 10 µM, the IC50 [1, 6] was < 10 µM and the IC50 ([2]; Homo sapiens, Mast cell) was < 10 µM.
CNC(=O)COc1c(C)cc(Nc2ncc(F)c(Nc3ccc4c(n3)NC(=O)C(C)(C)O4)n2)cc1Cl [Compound 1037, N2-[3-Chloro-5-methyl-4-(N-methylamino)carbonylmethyleneoxyphenyl]-N4-(2,2-dimethyl-3-oxo-4H-5-pyrid[1,4]oxazin-6-yl)-5-fluoro-2,4-pyrimidinediamine] was tested, and the IC50 [1, 4] was < 10 µM and the IC50 [2] was > 10 µM.
With CCOC(=O)COc1c(C)cc(Nc2ncc(F)c(Nc3ccc4c(n3)NC(=O)C(C)(C)O4)n2)cc1C [Compound 1038, N2-(3,5-Dimethyl-4-ethoxycarbonylmethyleneoxyphenyl)-N4-(2,2-dimethyl-3-oxo-4H-5-pyrid[1,4]oxazin-6-yl)-5-fluoro-2,4-pyrimidinediamine] the IC50 [1, 4] was < 10 µM and the IC50 [2] was > 10 µM.
In the case of Cc1cc(Nc2ncc(F)c(Nc3ccc4c(c3)NC(=O)C(C)(C)O4)n2)cc(Cl)c1OC(C)C [Compound 1039, N2-(3-Chloro-4-isopropoxy-5-methylphenyl)-N4-(2,2-dimethyl-3-oxo-4H-benz[1,4]oxazin-6-yl)-5-fluoro-2,4-pyrimidinediamine], the IC50 [1, 6] is reported as < 10 µM and the IC50 ([2]; Homo sapiens, Mast cell) is reported as < 10 µM.
For Cc1cc(Nc2ncc(F)c(Nc3ccc4c(n3)NC(=O)C(C)(C)O4)n2)cc(Cl)c1OC(C)C [Compound 1040, N2-(3-Chloro-4-isopropoxy-5-methylphenyl)-N4-(2,2-dimethyl-3-oxo-4H-5-pyrid[1,4]oxazin-6-yl)-5-fluoro-2,4-pyrimidinediamine], the IC50 [1, 4] was > 10 µM and the IC50 [2] was < 10 µM.
For CNC(=O)COc1c(C)cc(Nc2ncc(F)c(Nc3ccc4c(n3)NC(=O)C(C)(C)O4)n2)cc1C [Compound 1041, N2-[3,5-Dimethyl-4-(N-methylamino)carbonylmethyleneoxyphenyl]-N4-(2,2-dimethyl-3-oxo-4H-5-pyrid[1,4]oxazin-6-yl)-5-fluoro-2,4-pyrimidinediamine], the IC50 [1, 3] was < 10 µM, the IC50 [1, 4] was < 10 µM and the IC50 [2] was < 10 µM.
In the case of CCOC(=O)COc1c(C)cc(Nc2ncc(F)c(Nc3ccc4c(n3)NC(=O)C(C)(C)O4)n2)cc1Cl [Compound 1042, N2-(3-Chloro-4-ethoxycarbonylmethyleneoxy-5-methylphenyl)-N4-(2,2-dimethyl-3-oxo-4H-5-pyrid[1,4]oxazin-6-yl)-5-fluoro-2,4-pyrimidinediamine], the IC50 [1, 3] is reported as > 10 µM and the IC50 [2] is reported as > 10 µM.
